Experimental data taken from patent publication US20140349962A1, “RAPID TWO-STEP SYNTHESIS OF ANTI-COAGULANTS” (Massachusetts Institute of Technology, priority 2013, published 2014).

Experiments:
[1] = molecular target: anti-thrombin III (ATIII) (Homo sapiens, UniProt P01008); conditions: compared to in vitro modified commercial heparin
Protocol: PAP^35S-radiolabeled N-deacetylate N-sulfate derivatives of non-sulfated N-acetyl heparosan (HS) polysaccharides (10, 000 counts) was reacted with […] ATIII. Complex formation was analyzed by non-denaturing gel electrophoresis (4% polyacrylamide). The mobility of radiolabeled N-deacetylate N-sulfate derivatives of non-sulfated N-acetyl heparosan (HS) polysaccharides was compared with and without ATIII.
Heparin-ATIII binding buffer contained 12% glycerol, 20 mM Tris-HCl (pH 7.9), 100 mM KCl, 1 mM EDTA, and 1 mM DTT. For a typical 20 μl binding reaction, radiolabeled polysaccharide (10,000 cpm) was mixed with AT-III (1 μg) in the binding buffer. The reaction mixture was incubated at room temperature (23° C.) for 20 min and was then applied to a 4.5% native polyacrylamide gel (with 0.1% of bis-acrylamide). The gel buffer was 10 mM Tris (pH 7.4) and 1 mM EDTA, and the electrophoresis buffer was 40 mM Tris (pH 8.0), 40 mM acetic acid, 1 mM EDTA. The gel was run at 6 volts/cm for 1-2 hours with an SE 250 Mighty Small II gel apparatus (Hoefer Scientific Instruments, San Francisco). After electrophoresis, the gel was transferred to 3 MM paper and dried under vacuum. The dried gel was autoradiographed by a PhosphorImager 445S1 (Molecular Dynamics, Sunnyvale, Calif.). The image was analyzed with NIH Image 1.60 and band intensities were evaluated.

PF4 = PF4 (Homo sapiens, UniProt P02776); conditions: expected because compound is free of 2-O sulfated iduronic acid residues
Chain of PF4 (P02776 32-101): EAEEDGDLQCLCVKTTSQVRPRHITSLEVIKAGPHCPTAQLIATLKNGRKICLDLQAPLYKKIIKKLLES

Human factor Xa = conditions: approximately; heparin-dependent factor Xa inhibition, commercial heparin as standard
Protocol: Human factor Xa (10.4 mg/ml 50% glycerol, 820 units/mg) (Hematologic Technologies, Essex Junction, Vt.) was used for assay. Factor Xa was diluted 1:200 with PBS containing 1 mg of bovine serum albumin (4 units/ml and 15 units/ml, respectively). ATIII (2.5 mg/ml) (GlycoMed, CA) was diluted 1:200 to give a 2×10^7 M stock solution. The chromogenic substrate S-2765 was from Chromogenix (West Chester, Ohio) and the stock solution of 1 mM with 1 mg/ml Polybrene in water was prepared. Heparin (174 international units/mg, Sigma) was used as a standard. The N-deacetylated N-sulfated polysaccharide product was used for factor Xa studies (10 ng). The protocol involved adding 25 μl of ATIII (2×10 7 M) to 25 μl of a serial dilution of heparin standards or N-deacetylated N-sulfated polysaccharide in Tris-EDTA (50 mM Tris, 7.5 mM EDTA, and 175 mM NaCl (pH 8.4)) buffer. The reaction was incubated at 37° C. for 75 seconds. Factor Xa (25 μl, 4 units/ml) was added. After incubating at 37° C. for 195 seconds, 25 μl of S-2765 was added. The absorbance at 405 nm was read every minute for 10 minutes using a Beckman UV spectrometer.

Chain of anti-thrombin III (ATIII) (P01008 33-464, species assumed): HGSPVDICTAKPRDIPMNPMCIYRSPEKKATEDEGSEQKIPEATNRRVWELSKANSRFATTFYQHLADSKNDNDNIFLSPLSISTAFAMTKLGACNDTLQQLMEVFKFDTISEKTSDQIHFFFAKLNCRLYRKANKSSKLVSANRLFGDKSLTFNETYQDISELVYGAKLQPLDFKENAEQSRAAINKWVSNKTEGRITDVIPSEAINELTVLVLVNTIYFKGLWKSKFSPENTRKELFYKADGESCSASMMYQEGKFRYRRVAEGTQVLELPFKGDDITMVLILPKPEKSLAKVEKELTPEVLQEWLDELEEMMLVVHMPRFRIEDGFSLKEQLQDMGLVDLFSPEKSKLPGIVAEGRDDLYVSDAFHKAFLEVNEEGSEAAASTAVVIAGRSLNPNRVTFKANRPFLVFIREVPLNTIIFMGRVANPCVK

**Q.** “N-deacetylate N-sulfate derivatives of non-sulfated N-acetyl heparosan (HS) polysaccharide [Formula I]” was tested. Which “percentage of compound bound to ATIII compared to commercial heparin” value [1] did it give?
**A.** greater percentage

**Q.** And the “ability to bind to PF4” value (PF4)?
**A.** reduced ability to bind to PF4

**Q.** What about the “specific activity relative to commercial heparin” value (Human factor Xa) of the same substance?
**A.** 4-5 times
